The text below walks through data of patent US10206906B2, “Synergistic combination of a phenolic-rich maple syrup extract and an antibiotic” (priority 2015, dated 2019).

Test [1] has as its system outer membrane of P. mirabilis HI4320. In words: Outer membrane permeabilization, NPN uptake assay. It is filed as cell-based, Proteus mirabilis. The following applies: positive control gentamicin, above and below MICs. The method, then: (§1) The cells are harvested, washed with 5 mM HEPES buffer (pH 7.2), and resuspended in the same volume (10 mL) of 5 mM HEPES buffer (pH 7.2) containing 1 mM N-ethylmaleimide (NEM, Sigma-Aldrich Canada). Aliquots (1 mL) are mixed with NPN to a final concentration of 10 μM (in cell suspension) and fluorescence is measured using the microplate reader (ex/em 350/420 nm).

Test [2] has as its system outer membrane of P. aeruginosa PA14. In words: Outer membrane permeabilization, NPN uptake assay. It is filed as cell-based, Pseudomonas aeruginosa. Conditions: positive control gentamicin, above and below MICs. The method, then: as §1
For test [3], the system named is outer membrane of P. aeruginosa PAO1. In words: Outer membrane permeabilization, NPN uptake assay. The test is classed as cell-based, Pseudomonas aeruginosa. Conditions: positive control gentamicin, above and below MICs. As for the experimental part: as §1
The test system of test [4] is outer membrane of E. coli CFT073. In words: Outer membrane permeabilization, NPN uptake assay. The test is classed as cell-based, Escherichia coli. The following applies: positive control gentamicin, above and below MICs. As for the experimental part: as §1
The test system of test [5] is cell membrane of E. coli CFT073. The experiment in a line: BacLight membrane integrity assay. The test is classed as cell-based, Escherichia coli. Conditions: PRMSE, catechol at 4 × MIC for 10 min; CTAB 10 μM; untreated = 100. The method, then:
(§2) The BacLight kit (L-13152, Invitrogen™, Life Technologies Inc., Canada) is used to assess cell membrane damage. Overnight bacterial cultures are diluted 1:40 in fresh MHBII broth to a final volume of 5 mL, grown to an OD600 of 0.5-0.6, washed with filter-sterilized 10 mM phosphate buffered saline (PBS, pH 7.0) and resuspended in 1/10 of the original volume. […] Cultures are incubated at room temperature (21±2° C.) on a tube rocker for 10 min. At the end of the incubation period, an aliquot is taken for CFU counts and the remaining suspension is washed with 10 mM PBS and resuspended to an OD600) of 0.3. An aliquot (100 μL) of each bacterial suspension is removed and added to a 96-well, black, clear-bottom plate (Corning™, Fisher Scientific, ON, Canada) along with an equal volume of the BacLight™ reagent (2× stock solution, L13152, Invitrogen™, Life Technologies Inc., Canada) and the plates are incubated for 10 min at room temperature in the dark. At the end of the incubation period, fluorescence intensity is recorded for both kit components, SYTO-9 (ex/em 485/530 nm) and propidium iodide (ex/em 485/645 nm), using the microplate reader. Fluorescence readings from samples are normalized to the values obtained from untreated control to determine the ratio of membrane compromised cells to cells with intact membrane. […]

The next test deals with P. mirabilis HI4320. The experiment in a line: Bacterial colony forming ability (CFU counts after exposure). The test is classed as cell-based, Proteus mirabilis. Conditions: log decrease vs untreated control; 4 × MIC, 10 min; CTAB 10 μM. As for the experimental part: (§3) The BacLight kit (L-13152, Invitrogen™, Life Technologies Inc., Canada) is used to assess cell membrane damage. Overnight bacterial cultures are diluted 1:40 in fresh MHBII broth to a final volume of 5 mL, grown to an OD600 of 0.5-0.6, washed with filter-sterilized 10 mM phosphate buffered saline (PBS, pH 7.0) and resuspended in 1/10 of the original volume. […] Cultures are incubated at room temperature (21±2° C.) on a tube rocker for 10 min. At the end of the incubation period, an aliquot is taken for CFU counts and the remaining suspension is washed with 10 mM PBS and resuspended to an OD600) of 0.3. An aliquot (100 μL) of each bacterial suspension is removed and added to a 96-well, black, clear-bottom plate (Corning™, Fisher Scientific, ON, Canada) along with an equal volume of the BacLight™ reagent (2× stock solution, L13152, Invitrogen™, Life Technologies Inc., Canada) and the plates are incubated for 10 min at room temperature in the dark. At the end of the incubation period, fluorescence intensity is recorded for both kit components, SYTO-9 (ex/em 485/530 nm) and propidium iodide (ex/em 485/645 nm), using the microplate reader. Fluorescence readings from samples are normalized to the values obtained from untreated control to determine the ratio of membrane compromised cells to cells with intact membrane. Cetyltrimethylammonium bromide (CTAB, Sigma-Aldrich Canada), a cationic detergent that is known to cause membrane damage, is used at concentration of 10 μM as a positive control for membrane disruption.

Test [6] concerns P. aeruginosa PAO1. The test is described as above. The test is classed as cell-based, Pseudomonas aeruginosa. Conditions: log decrease vs untreated control; 4 × MIC, 10 min; CTAB 10 μM. The method, then:
as §3

The test system of test [7] is P. aeruginosa PA14. The description is as above. It is filed as cell-based, Pseudomonas aeruginosa. The following applies: log decrease vs untreated control; 4 × MIC, 10 min; CTAB 10 μM. The method, then: as §3
For test [8], the system named is cell membrane of P. aeruginosa PAO1. In words: BacLight membrane integrity assay. It is filed as cell-based, Pseudomonas aeruginosa. Conditions: PRMSE, catechol at 4 × MIC for 10 min; CTAB 10 μM; untreated = 100. The method, then: as §3
The test system of test [9] is cell membrane of P. aeruginosa PA14. The experiment in a line: BacLight membrane integrity assay. The following applies: PRMSE, catechol at 4 × MIC for 10 min; CTAB 10 μM; untreated = 100. The test is classed as cell-based, Pseudomonas aeruginosa. As for the experimental part: as §3
The test system of a further test is E. coli CFT073. The experiment in a line: Bacterial colony forming ability (CFU counts after exposure). The test is classed as cell-based, Escherichia coli. Conditions: log decrease vs untreated control; 4 × MIC, 10 min; CTAB 10 μM. As for the experimental part: as §3
In test [10] the test system is cell membrane of P. mirabilis HI4320. The experiment in a line: BacLight membrane integrity assay. It is filed as cell-based, Proteus mirabilis. The following applies: PRMSE, catechol at 4 × MIC for 10 min; CTAB 10 μM; untreated = 100. The method, then:
as §2

For test [11], the system named is P. aeruginosa PAO1. In words: Checkerboard microdilution assay (growth inhibition synergy). The test is classed as cell-based, Pseudomonas aeruginosa. The following applies: carbenicillin/PRMSE combination; FIC of the labelled component. The method, then:
(§4) The checkerboard microdilution assay is used for evaluation of in vitro antimicrobial synergy between two compounds (i.e., antibiotic/PRMSE, antibiotic/pure phenolic compound, and pure phenolic compounds with each other). Two-fold serial dilutions are prepared in MHB-II for each of the two compounds under study. The serial dilutions are then loaded into 96 well plates to achieve combinations having different concentrations of each of the two compounds. Each well is subsequently inoculated with 10^6 CFU mL^−1 of the desired bacterial strain and incubated at 37° C. for 18 h under static conditions. The Fractional Inhibitory Concentration Index (FICI) for each combination is calculated by using the following formula: FICcomponent 1=MICcomponent 1, in combination/MICcomponent 1,alone FICI=FICcomponent 1+FICcomponent 2
(§5) The FICIs are interpreted as follows: FICI of […] (synergy); 0.5<FICI ≤1 (no interaction/indifference); FICI of >4 (antagonism).
(In general: In broth dilution the organism is exposed to a series of concentrations in liquid medium.)

Test [12] deals with P. aeruginosa PA14. Described as above. The following applies: carbenicillin/PRMSE combination; FIC of the labelled component. The test is classed as cell-based, Pseudomonas aeruginosa. The method, then:
as §4, §5

Test [13] concerns P. aeruginosa PAO1. In words: Determination of minimum inhibitory concentration (MIC). The test is classed as cell-based. The following applies: Pseudomonas aeruginosa, PAO1; antibiotic alone; MHB-II, 37° C., 18 h; read-out: MIC. The method, then:
(§6) A range of concentration of antibiotics, ciprofloxacin (0.0003-0.25 μg mL^−1) and carbenicillin (0.5-512 μg mL^−1), are chosen due to their known potency against all four bacterial strains. Dilutions are prepared in flat bottom, 96 well microtitre plates (Falcon™, Corning™, Fisher Scientific, ON, Canada). Each well of a microtitre plate is then inoculated with the desired bacterial strain (grown in MHB-II and diluted to […]) and the plate is incubated at 37° C. for 18 h under static conditions. Bacterial growth is assessed by (i) monitoring the optical density of the cell suspension in each well at 600 nm (OD600 nm), and (ii) the resazurin microtitre plate assay. In the resazurin microtitre plate assay, each well of a microtitre plate is supplemented with 20 μM resazurin, incubated in the dark for 20 min at room temperature, followed by fluorescence measurements at ex/em 570/590 nm using a TECAN Infinite M200 Pro microplate reader (Tecan Group Ltd., Switzerland). The lowest concentration of a compound able to prevent increase in OD600 nm and resazurin fluorescence intensity is recorded as the MIC for that compound.

For test [14], the system named is P. aeruginosa PA14. The description is as above. The test is classed as cell-based. Conditions: Pseudomonas aeruginosa, PA14; antibiotic alone; MHB-II, 37° C., 18 h; read-out: MIC. As for the experimental part:
as §6

≈ marks a conversion by molar mass, not a printed value.

In the case of gentamicin [reference compound], the results for the Minimum permeabilization concentration in [1], in test [2] and in test [3] were 0.013 µg/mL, 1 µg/mL and 1 µg/mL, respectively. The “Minimum permeabilization concentration (NPN assay)” value in test [4] was 0.006 µg/mL.

In the case of `CCCCCCCCCCCCCCCC[N+](C)(C)C.[Br-]` [CTAB, cetyltrimethyl-ammonium bromide, reference compound], the “% cells with uncompromised membrane (BacLight assay)” value in [5] was determined as 0%. Also, the “Bacterial colony forming ability (Δ log CFU mL^−1)” value with P. mirabilis HI4320 was 4.5 Δ log CFU mL^−1; with P. aeruginosa PAO1 [6], 5.1 Δ log CFU mL^−1; with P. aeruginosa PA14 [7] it was 4.9 Δ log CFU mL^−1; with E. coli CFT073, 5.7 Δ log CFU mL^−1. Also, the “% cells with uncompromised membrane” value in test [8], in test [9] and in test [10] was 0% throughout.

As for `CC1(C)S[C@@H]2[C@H](NC(=O)C(C(=O)O)c3ccccc3)C(=O)N2[C@H]1C(=O)O` (stereo partly shown) [carbenicillin, reference compound], the FIC was 0.13 in the test on P. aeruginosa PAO1 [11] and 0.063 with P. aeruginosa PA14 [12]. The MIC (as a rule, the smallest concentration in the dilution series that meets the test's criterion for growth inhibition) came out at 64 mg/L (≈ 169 µM) in the test on P. aeruginosa PAO1 [13] and 128 mg/L (≈ 338 µM) with P. aeruginosa PA14 [14].
